Measurements as given in patent US7446199B2, “Compositions useful as inhibitors of protein kinases” (Vertex Pharmaceuticals Incorporated, priority 2003, dated 2008).

Tests used:
Format in all cases: biochemical
[1] = target: GSK-3β, (AA 1-420) (Homo sapiens, UniProt P49841); assay: GSK-3 inhibition assay, coupled enzyme system; details: 20 μM ATP, 300 μM peptide, 20 nM GSK-3b, 30° C.; read-out: Ki values (GSK3)
Outline: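 Pyruvate kinase/lactate dehydrogenase-coupled NADH assay with 20 nM enzyme, 20 μM ATP and 300 μM peptide in HEPES pH 7.5, 1.5% DMSO, 30° C. Compound (0.002–30 μM, 12-point) preincubated 10 min before ATP start; rates over 10 min gave Ki.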

[2] = target: T1, JAK3 (Homo sapiens, UniProt P52333); assay: JAK3 inhibition assay (ELISA, Poly (Glu, Ala, Tyr) coated plates); details: 2 mM ATP, 60 minutes at 30° C.
T1 sequence (P52333 1-1124): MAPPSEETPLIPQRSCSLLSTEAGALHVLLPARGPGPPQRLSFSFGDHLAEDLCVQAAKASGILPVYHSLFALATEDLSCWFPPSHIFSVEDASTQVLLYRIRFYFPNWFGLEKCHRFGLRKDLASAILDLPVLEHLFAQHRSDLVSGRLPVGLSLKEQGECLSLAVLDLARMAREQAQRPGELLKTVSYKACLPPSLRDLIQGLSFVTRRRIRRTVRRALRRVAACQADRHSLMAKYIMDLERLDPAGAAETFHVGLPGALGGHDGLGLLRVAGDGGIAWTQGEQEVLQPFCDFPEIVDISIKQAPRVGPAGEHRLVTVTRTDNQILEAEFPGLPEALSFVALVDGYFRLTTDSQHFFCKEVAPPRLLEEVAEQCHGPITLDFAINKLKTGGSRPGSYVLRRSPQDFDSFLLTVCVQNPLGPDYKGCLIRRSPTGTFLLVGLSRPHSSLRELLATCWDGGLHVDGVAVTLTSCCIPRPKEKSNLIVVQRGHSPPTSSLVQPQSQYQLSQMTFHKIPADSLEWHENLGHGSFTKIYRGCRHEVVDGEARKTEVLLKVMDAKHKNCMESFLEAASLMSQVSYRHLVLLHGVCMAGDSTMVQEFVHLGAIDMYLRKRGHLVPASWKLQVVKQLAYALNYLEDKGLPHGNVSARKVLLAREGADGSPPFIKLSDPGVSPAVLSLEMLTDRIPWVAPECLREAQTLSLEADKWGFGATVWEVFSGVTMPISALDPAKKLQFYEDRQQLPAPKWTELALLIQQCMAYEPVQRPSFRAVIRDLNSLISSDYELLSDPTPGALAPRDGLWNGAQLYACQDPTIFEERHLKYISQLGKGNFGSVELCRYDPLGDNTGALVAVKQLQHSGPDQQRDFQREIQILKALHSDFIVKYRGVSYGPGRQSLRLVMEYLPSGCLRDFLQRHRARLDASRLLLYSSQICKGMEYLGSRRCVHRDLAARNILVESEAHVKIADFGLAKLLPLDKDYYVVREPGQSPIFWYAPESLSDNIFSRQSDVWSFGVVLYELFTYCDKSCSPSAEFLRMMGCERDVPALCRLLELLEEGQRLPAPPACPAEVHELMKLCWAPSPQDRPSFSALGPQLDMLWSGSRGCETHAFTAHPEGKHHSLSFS
Outline: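 ELISA on Poly(Glu,Ala,Tyr) 6:3:1-coated plates with 2 mM ATP and 5 mM MgCl2. JAK enzyme started the reaction, run 60 min at 30° C. Phosphotyrosine was detected with HRP-conjugated 4G10 antibody and TMB, read at 450 nm, and IC50 was derived from optical densities.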

[3] = target: KDR (Homo sapiens, UniProt P35968); assay: KDR enzyme assay, coupled enzyme assay; details: 300 μM ATP, 10 μM poly E4Y, 30 nM KDR, 37° C.
KDR, sequence (P35968 20-1356): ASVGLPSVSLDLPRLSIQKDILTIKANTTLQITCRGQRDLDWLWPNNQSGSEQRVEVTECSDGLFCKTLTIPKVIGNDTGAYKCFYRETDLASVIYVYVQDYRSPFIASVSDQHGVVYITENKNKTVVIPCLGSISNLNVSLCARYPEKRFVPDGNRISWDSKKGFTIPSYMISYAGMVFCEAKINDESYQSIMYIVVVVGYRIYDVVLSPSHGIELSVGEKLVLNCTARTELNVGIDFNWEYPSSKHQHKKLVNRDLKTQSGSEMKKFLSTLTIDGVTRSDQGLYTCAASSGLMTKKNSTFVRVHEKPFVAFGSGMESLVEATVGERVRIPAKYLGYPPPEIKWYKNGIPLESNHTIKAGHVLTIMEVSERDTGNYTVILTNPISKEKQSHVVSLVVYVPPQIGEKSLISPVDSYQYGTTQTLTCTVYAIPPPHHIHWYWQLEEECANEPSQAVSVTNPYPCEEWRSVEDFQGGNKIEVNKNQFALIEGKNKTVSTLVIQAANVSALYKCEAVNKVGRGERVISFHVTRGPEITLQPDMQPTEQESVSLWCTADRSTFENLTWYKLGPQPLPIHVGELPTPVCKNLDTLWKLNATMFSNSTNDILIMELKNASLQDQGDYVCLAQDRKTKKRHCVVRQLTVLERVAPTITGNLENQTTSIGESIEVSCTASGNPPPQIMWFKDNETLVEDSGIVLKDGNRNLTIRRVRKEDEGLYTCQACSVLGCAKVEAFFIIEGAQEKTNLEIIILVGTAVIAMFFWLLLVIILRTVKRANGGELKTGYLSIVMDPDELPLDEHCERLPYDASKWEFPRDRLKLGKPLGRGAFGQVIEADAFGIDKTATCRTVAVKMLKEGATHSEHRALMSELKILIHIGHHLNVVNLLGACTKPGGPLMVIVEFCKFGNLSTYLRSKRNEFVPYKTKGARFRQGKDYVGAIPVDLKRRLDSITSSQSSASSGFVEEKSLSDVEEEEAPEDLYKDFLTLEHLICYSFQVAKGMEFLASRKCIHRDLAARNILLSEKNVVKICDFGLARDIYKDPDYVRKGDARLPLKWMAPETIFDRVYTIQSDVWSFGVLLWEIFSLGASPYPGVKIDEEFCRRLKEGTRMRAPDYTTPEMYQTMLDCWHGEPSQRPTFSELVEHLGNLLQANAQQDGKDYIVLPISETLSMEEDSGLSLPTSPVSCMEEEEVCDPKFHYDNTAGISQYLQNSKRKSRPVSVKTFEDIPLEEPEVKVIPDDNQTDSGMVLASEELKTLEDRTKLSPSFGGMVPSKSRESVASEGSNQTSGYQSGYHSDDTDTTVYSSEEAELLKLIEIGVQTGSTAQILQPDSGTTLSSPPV
Method: Compounds were screened for their ability to inhibit KDR using a standard coupled enzyme assay (Fox et al., Protein Sci., (1998) 7, 2249). Assays were carried out in a mixture of 200 mM HEPES 7.5, 10 mM MgCl2, 25 mM NaCl, 1 mM DTT and 1.5% DMSO. Final substrate concentrations in the assay were 300 μM ATP (Sigma Chemicals) and 10 μM poly E4Y (Sigma). Assays were carried out at 37° C. and 30 nM KDR. Final concentrations of the components of the coupled enzyme system were 2.5 mM phosphoenolpyruvate, 200 μM NADH, 30 μg/ML pyruvate kinase and 10 μg/ml lactate dehydrogenase.
An assay stock buffer solution was prepared containing all of the reagents listed above, with the exception of ATP and the test compound of interest. 177 μl of the stock solution was placed in a 96 well plate followed by addition of 3 μl of 2 mM DMSO stock containing the test compound (final compound concentration 30 μM). The plate was preincubated for about 10 minutes at 37° C. and the reaction initiated by addition of 20 μl of ATP (final concentration 300 μM). Rates of reaction were obtained using a Molecular Devices plate reader (Sunnyvale, Calif.) over a 5 minute read time at 37° C.

GSK-3β, (AA 1-420), sequence (P49841 whole entry, the tested form may be a part): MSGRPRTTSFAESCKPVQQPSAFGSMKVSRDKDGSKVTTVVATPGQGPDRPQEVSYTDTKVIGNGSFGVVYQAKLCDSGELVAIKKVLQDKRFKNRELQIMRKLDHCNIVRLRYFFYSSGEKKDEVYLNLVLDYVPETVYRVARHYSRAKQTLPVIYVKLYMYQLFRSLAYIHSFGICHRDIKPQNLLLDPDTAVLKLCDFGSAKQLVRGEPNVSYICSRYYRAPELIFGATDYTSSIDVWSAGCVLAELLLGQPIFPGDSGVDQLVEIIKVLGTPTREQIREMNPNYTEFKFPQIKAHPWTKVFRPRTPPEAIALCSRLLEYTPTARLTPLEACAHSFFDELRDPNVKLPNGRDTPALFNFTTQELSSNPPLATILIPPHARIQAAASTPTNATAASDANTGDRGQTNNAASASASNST

Row | Ki [1] | Ki [2] | Ki [3] | Structure (SMILES)
1 | 200 to 1000 nM | < 200 nM | 200 to 1000 nM | COc1cnc2[nH]cc(-c3oncc3-c3cccc(F)c3F)c2c1 [Compound 38, 3-[4-(2,3-Difluoro-phenyl)-isoxazol-5-yl]-5-methoxy-1H-pyrrolo[2,3-b]pyridine]
2 | 200 to 1000 nM | < 200 nM | < 200 nM | Fc1cccc(-c2cnoc2-c2c[nH]c3ncc(-c4ccccc4)cc23)c1F [Compound 58, 3-[4-(2,3-Difluoro-phenyl)-isoxazol-5-yl]-5-phenyl-1H-pyrrolo[2,3-b]pyridine]
3 | < 200 nM | < 200 nM | < 200 nM | O=c1ccc(-c2cnc3[nH]cc(-c4oncc4-c4cccc(F)c4F)c3c2)c[nH]1 [Compound 67, 5-{3-[4-(2,3-Difluoro-phenyl)-isoxazol-5-yl]-1H-pyrrolo [2,3-b]pyridin-5-yl}-1H-pyridin-2-one]
4 | 200 to 1000 nM | < 200 nM | < 200 nM | COc1cncc(-c2cnc3[nH]cc(-c4oncc4-c4cccc(F)c4F)c3c2)c1 [Compound 96, 3-[4-(2,3-Difluoro-phenyl)-isoxazol-5-yl]-5-(5-methoxy-pyridin-3-yl)-1H-pyrrolo[2,3-b]pyridine]
5 | < 200 nM | 1000 to 12500 nM | 200 to 1000 nM | Fc1cccc(-n2cnnc2-c2c[nH]c3ncc(-c4ccncc4)cc23)c1F [Compound 114, 3-[4-(2,3-Difluoro-phenyl)-4H-[1,2,4]triazol-3-yl]-5-pyridin-4-yl-1H-pyrrolo[2,3-b]pyridine]
6 | < 200 nM | < 200 nM | < 200 nM | CS(=O)(=O)NC1CC=C(c2cnc3[nH]cc(-c4oncc4-c4cccc(F)c4F)c3c2)CC1 (stereo not drawn) [Compound 140, N-(4-{3-[4-(2,3-Difluoro-phenyl)-isoxazol-5-yl]-1H-pyrrolo[2,3-b]pyridin-5-yl}-cyclohex-3-enyl)-methanesulfonamide]
7 | 1000 to 12500 nM | < 200 nM | < 200 nM | Oc1cnc2[nH]cc(-c3oncc3-c3cccc(Cl)c3Cl)c2c1 [Compound 48, 3-[4-(2,3-Dichloro-phenyl)-isoxazol-5-yl]-1H-pyrrolo[2,3-b]pyridin-5-ol]
8 | 200 to 1000 nM | < 200 nM | < 200 nM | Nc1ccnc(-c2cnc3[nH]cc(-c4oncc4-c4cccc(F)c4F)c3c2)c1 [Compound 83, 2-{3-[4-(2,3-Difluoro-phenyl)-isoxazol-5-yl]-1H-pyrrolo [2,3-b]pyridin-5-yl}-pyridin-4-ylamine]
9 | 1000 to 12500 nM | 1000 to 12500 nM | < 200 nM | CN(C)c1ccnc(-c2cnc3[nH]cc(-c4oncc4-c4cccc(F)c4F)c3c2)c1 [Compound 80, (2-{3-[4-(2,3-Difluoro-phenyl)-isoxazol-5-yl]-1H-pyrrolo[2,3-b]pyridin-5-yl}-pyridin-4-yl)-dimethyl-amine]
10 | < 200 nM | < 200 nM | < 200 nM | CN(C)Cc1ccnc(-c2cnc3[nH]cc(-c4oncc4-c4cccc(F)c4F)c3c2)c1 [Compound 82, (2-{3-[4-(2,3-Difluoro-phenyl)-isoxazol-5-yl]-1H-pyrrolo[2,3-b]pyridin-5-yl}-pyridin-4-ylmethyl)-dimethyl-amine]
11 | < 200 nM | < 200 nM | < 200 nM | Fc1cccc(-c2cnoc2-c2c[nH]c3ncc(-c4ccc(N5CCNCC5)cc4)cc23)c1F [Compound 68, 3-[4-(2,3-Difluoro-phenyl)-isoxazol-5-yl]-5-(4-piperazin-1-yl-phenyl)-1H-pyrrolo[2,3-b]pyridine]
12 | 1000 to 12500 nM | < 200 nM | 200 to 1000 nM | CN(C)Cc1ccc(-c2cnc3[nH]cc(-c4oncc4-c4cccc(F)c4F)c3c2)cc1 [Compound 91, (4-{3-[4-(2,3-Difluoro-phenyl)-isoxazol-5-yl]-1H-pyrrolo[2,3-b]pyridin-5-yl}-benzyl)-dimethyl-amine]
13 | 1000 to 12500 nM | 1000 to 12500 nM | 1000 to 12500 nM | CNc1ccc2c(-c3oncc3-c3cccc(F)c3F)c[nH]c2n1 [Compound 102, {3-[4-(2,3-Difluoro-phenyl)-isoxazol-5-yl]-1H-pyrrolo[2,3-b]pyridin-6-yl}-methyl-amine]
14 | 200 to 1000 nM | 1000 to 12500 nM | 200 to 1000 nM | CN1CCN(c2ccc(-c3cnc4[nH]cc(-c5nncn5-c5cccc(F)c5F)c4c3)cn2)CC1 [Compound 112]
15 | 200 to 1000 nM | 200 to 1000 nM | 200 to 1000 nM | CN(C)c1cccc(-c2cnc3[nH]cc(-c4oncc4-c4cccc(F)c4F)c3c2)c1 [Compound 61, (3-{3-[4-(2,3-Difluoro-phenyl)-isoxazol-5-yl]-1H-pyrrolo[2,3-b]pyridin-5-yl}-phenyl)-dimethyl-amine]
16 | < 200 nM | 200 to 1000 nM | < 200 nM | Fc1ccc(-c2cnc3[nH]cc(-c4oncc4-c4cccc(F)c4F)c3c2)cn1 [Compound 69, 3-[4-(2,3-Difluoro-phenyl)-isoxazol-5-yl]-5-(6-fluoro-pyridin-3-yl)-1H-pyrrolo[2,3-b]pyridine]
17 | 200 to 1000 nM | 1000 to 12500 nM | 1000 to 12500 nM | Fc1cccc(-n2cnnc2-c2c[nH]c3ncc(-c4ccc(N5CCC[C@H]5CN5CCCC5)nc4)cc23)c1F [Compound 115, 3-[4-(2,3-Difluoro-phenyl)-4H-[1,2,4]triazol-3-yl]-5-[6-(2-pyrrolidin-1-ylmethyl-pyrrolidin-1-yl)-pyridin-3-yl]-1H-pyrrolo[2,3-b]pyridine]
18 | 200 to 1000 nM | < 200 nM | < 200 nM | CN(C)C(=O)c1ccc(-c2cnc3[nH]cc(-c4oncc4-c4cccc(F)c4F)c3c2)nc1 [Compound 79, 6-{3-[4-(2,3-Difluoro-phenyl)-isoxazol-5-yl]-1H-pyrrolo [2,3-b]pyridin-5-yl}-N,N-dimethyl-nicotinamide]
19 | < 200 nM | 200 to 1000 nM | 1000 to 12500 nM | N#CCC(=O)N1CCC(c2cnc3[nH]cc(-c4oncc4-c4cccc(F)c4F)c3c2)CC1 [Compound 64, 3-(4-{3-[4-(2,3-Difluoro-phenyl)-isoxazol-5-yl]-1H-pyrrolo[2,3-b]pyridin-5-yl}-piperidin-1-yl)-3-oxo-propionitrile]
20 | < 200 nM | < 200 nM | < 200 nM | CS(=O)(=O)Nc1ccc(-c2cnc3[nH]cc(-c4oncc4-c4cccc(F)c4F)c3c2)cc1 [Compound 98, N-(4-{3-[4-(2,3-Difluoro-phenyl)-isoxazol-5-yl]-1H-pyrrolo[2,3-b]pyridin-5-yl}-phenyl)-methane sulfonamide]
21 | 200 to 1000 nM | < 200 nM | < 200 nM | Fc1cccc(-c2cnoc2-c2c[nH]c3ncc(-c4cnc5[nH]ccc5c4)cc23)c1F [Compound 77, 3-[4-(2,3-Difluoro-phenyl)-isoxazol-5-yl]-1H,1′H-[5,5′]bi[pyrrolo[2,3-b]pyridinyl]]
22 | 200 to 1000 nM | 200 to 1000 nM | 200 to 1000 nM | CN1CCN(c2ccc(-c3cnc4[nH]cc(-c5nncn5-c5cccc(F)c5F)c4c3)cc2)CC1 [Compound 110, 3-[4-(2,3-Difluoro-phenyl)-4H-[1,2,4]triazol-3-yl]-5-[4-(4-methyl-piperazin-1-yl)-phenyl]-1H-pyrrolo[2,3-b]pyridine]
